Reference: ChEMBL document CHEMBL2074426 (Mol Pharmacol, 2001)

What was measured:
Format in all cases: functional, cell-based
[1] = target: ATP-dependent translocase ABCB1 (Homo sapiens, UniProt P08183); experiment: TP_TRANSPORTER: transepithelial transport (basal to apical) in MDR1-expressing LLC-PK1 cells; conditions: pig
[2] = target: ATP-dependent translocase ABCB1 (Mus musculus, UniProt P06795); experiment: TP_TRANSPORTER: transepithelial transport (basal to apical) in mdr1b-expressing LLC-PK1 cell
Sequence of ATP-dependent translocase ABCB1 (Mus musculus, UniProt P06795) (P06795 whole entry): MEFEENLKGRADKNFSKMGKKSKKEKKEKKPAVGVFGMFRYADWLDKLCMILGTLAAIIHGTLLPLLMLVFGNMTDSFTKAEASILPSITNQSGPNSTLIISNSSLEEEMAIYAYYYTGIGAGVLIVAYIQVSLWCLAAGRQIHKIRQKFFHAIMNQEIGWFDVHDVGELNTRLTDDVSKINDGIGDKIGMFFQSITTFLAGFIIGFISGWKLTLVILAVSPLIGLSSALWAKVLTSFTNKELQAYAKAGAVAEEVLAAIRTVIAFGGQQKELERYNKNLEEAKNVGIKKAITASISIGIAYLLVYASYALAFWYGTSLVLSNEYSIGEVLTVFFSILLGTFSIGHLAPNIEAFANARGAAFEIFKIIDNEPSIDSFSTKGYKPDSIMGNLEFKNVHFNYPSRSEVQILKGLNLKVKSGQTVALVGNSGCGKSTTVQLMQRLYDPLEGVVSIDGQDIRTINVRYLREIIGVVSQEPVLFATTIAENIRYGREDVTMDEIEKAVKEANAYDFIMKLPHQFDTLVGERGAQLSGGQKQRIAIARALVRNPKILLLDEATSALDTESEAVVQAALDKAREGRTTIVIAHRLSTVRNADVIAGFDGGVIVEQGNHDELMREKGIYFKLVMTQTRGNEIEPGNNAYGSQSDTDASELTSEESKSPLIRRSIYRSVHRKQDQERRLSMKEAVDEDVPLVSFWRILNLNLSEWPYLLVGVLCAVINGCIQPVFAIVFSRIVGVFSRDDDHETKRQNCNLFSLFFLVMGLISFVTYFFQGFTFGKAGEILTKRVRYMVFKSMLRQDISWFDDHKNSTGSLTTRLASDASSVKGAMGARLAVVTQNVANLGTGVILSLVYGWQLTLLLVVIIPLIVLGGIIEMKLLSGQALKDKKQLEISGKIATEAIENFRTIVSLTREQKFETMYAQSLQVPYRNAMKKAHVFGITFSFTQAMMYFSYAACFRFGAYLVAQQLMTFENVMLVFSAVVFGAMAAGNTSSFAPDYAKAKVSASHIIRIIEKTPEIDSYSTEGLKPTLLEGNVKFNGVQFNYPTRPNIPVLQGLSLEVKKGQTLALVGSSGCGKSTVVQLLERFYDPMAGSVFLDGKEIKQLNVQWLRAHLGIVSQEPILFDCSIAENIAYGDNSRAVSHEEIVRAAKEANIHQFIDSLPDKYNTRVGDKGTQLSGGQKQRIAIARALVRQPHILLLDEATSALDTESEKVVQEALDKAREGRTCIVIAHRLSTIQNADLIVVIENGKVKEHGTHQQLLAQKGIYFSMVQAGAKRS

[3] = target: ATP-dependent translocase ABCB1 (Mus musculus, UniProt P21447); experiment: TP_TRANSPORTER: transepithelial transport (basal to apical) in mdr1a-expressing LLC-PK1 cell; conditions: pig
Sequence of ATP-dependent translocase ABCB1 (Mus musculus, UniProt P21447) (P21447 whole entry): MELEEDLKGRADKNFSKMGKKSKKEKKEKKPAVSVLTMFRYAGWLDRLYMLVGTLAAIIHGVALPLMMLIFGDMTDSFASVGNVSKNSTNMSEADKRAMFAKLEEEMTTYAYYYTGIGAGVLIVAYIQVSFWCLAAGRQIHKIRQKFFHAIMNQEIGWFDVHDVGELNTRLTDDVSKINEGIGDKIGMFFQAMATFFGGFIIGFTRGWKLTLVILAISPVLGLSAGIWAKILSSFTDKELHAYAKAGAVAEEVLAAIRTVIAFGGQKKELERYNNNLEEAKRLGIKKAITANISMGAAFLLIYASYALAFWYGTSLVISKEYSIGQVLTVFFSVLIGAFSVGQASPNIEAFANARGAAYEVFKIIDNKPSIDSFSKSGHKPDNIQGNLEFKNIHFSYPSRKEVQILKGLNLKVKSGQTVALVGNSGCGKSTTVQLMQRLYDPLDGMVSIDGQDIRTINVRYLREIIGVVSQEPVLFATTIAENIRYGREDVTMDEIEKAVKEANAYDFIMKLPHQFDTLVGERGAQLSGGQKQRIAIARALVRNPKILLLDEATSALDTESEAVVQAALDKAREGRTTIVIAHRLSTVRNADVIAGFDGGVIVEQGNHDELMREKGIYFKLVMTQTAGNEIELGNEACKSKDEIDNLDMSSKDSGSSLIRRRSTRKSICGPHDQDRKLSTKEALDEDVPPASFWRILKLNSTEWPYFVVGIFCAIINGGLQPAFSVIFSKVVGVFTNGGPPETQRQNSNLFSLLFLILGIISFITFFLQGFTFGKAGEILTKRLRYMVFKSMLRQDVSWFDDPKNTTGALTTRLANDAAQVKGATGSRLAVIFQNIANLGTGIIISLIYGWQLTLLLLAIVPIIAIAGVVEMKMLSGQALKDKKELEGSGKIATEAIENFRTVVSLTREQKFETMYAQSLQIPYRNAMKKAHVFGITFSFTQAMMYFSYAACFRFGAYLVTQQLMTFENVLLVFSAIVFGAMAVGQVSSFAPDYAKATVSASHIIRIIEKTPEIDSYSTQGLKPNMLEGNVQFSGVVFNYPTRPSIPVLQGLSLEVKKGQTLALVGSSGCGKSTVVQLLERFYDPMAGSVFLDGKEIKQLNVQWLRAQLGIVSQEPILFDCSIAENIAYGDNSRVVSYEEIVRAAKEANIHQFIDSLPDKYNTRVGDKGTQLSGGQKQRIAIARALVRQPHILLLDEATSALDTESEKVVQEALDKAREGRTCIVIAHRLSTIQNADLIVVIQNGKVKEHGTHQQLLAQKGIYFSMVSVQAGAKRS

Measured: Activity

Sequence of ATP-dependent translocase ABCB1 (Homo sapiens, UniProt P08183) (P08183 whole entry): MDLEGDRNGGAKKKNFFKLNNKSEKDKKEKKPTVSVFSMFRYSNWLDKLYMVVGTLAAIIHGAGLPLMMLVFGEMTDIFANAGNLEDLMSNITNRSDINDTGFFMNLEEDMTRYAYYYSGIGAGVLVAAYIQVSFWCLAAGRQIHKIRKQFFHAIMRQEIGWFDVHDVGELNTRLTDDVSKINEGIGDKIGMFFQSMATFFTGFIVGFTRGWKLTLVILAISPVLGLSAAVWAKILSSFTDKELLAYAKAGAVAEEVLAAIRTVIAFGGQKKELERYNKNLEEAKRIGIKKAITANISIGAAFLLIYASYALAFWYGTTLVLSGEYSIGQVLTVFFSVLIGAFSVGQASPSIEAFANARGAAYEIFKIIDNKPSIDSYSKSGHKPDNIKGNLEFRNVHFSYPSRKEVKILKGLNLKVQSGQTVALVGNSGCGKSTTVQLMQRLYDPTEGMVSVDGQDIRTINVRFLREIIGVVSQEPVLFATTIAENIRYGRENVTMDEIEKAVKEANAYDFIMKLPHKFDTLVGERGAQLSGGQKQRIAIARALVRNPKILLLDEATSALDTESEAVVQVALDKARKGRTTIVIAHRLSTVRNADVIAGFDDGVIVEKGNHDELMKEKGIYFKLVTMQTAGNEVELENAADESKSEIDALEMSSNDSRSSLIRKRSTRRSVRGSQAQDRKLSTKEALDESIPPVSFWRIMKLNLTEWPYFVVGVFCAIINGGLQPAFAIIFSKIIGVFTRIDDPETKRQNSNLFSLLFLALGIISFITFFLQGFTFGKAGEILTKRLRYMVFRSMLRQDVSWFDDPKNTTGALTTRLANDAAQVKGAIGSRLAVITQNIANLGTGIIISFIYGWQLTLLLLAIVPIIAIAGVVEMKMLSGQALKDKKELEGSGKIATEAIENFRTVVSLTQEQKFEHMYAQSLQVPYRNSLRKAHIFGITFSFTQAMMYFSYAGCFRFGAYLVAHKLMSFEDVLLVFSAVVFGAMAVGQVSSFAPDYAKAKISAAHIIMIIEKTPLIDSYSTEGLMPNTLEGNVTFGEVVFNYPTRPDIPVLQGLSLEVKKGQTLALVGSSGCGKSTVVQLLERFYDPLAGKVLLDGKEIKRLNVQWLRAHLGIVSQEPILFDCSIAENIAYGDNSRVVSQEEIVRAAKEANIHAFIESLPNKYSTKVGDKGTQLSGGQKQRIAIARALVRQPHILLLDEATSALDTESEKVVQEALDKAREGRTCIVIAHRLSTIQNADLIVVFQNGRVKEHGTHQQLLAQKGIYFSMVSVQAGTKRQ

CC(C)(C)NC(=O)[C@@H]1C[C@@H]2CCCC[C@@H]2CN1C[C@@H](O)[C@H](Cc1ccccc1)NC(=O)[C@H](CC(N)=O)NC(=O)c1ccc2ccccc2n1
substrate [+]: all assays above
